According to US8309790B2, “Animal models for demyelination disorders” (University of Chicago, priority 2005, dated 2012):

Test system: transgenic littermates overexpressing IFN-γ and/or SOCS1
Test: IFN-γ-overexpressing mice crossed to PLP/SOCS1 mice, clinical and histological evaluation at postnatal day 21
Assay type: in vivo
Conditions: for oligodendrocyte density: corpus callosum, postnatal day 21; for G ratio (axon diameter/fiber diameter ratio): hypomyelination defined as G ratio>0.8
From the text: The transgenic mice MBP/IFN-γ and GFAP/tTA×TRE/IFN-γ (lines 184/110 and 184/67) that overexpress IFN-γ in the CNS have been described elsewhere (Corbin et al., 1996; Gao et al., 2000; Lin et al., 2004, 2005). Briefly, MBP/IFN-γ mice are transgenic animals in which IFN-γ expression is driven by the myelin basic protein (MBP) transcriptional control region (Gao et al., 2000). GFAP/tTA×TRE/IFN-γ are double-transgenic mice obtained by mating single-transgenic GFAP/tTA to single-transgenic TRE/IFN-γ (lines 110 and 67) mice. The two TRE/IFN-γ mouse lines, line 110 and line 67, used in the experiments produce different amounts of IFN-γ when crossed to GFA/tTA mice (184/110 and 184/67) (Lin e al., 2004, 2005). GFAP/tTA×TRE/IFN-γ is a tetracycline-off-inducible system in which the glial fibrilary acidic protein (GFAP) transcriptional control region drives the expression of tTA, which in turn, binds to the TRE (tet responsive element) and initiates the expression of IFN-γ. Administration of doxycycline suppresses tTA DNA binding and IFN-γ expression, and doxycycline removal allows for temporally-controlled induction of IFN-γ expression (Gao et al., 1999).
IFN-γ-overexpressing mice were crossed to the PLP/SOCS1 mice in double-transgenic, (MBP/IFN-γ×PLP/SOCS1) and triple-transgenic (GFAP/tTA×TRE/IFN-γ×PLP/SOCS1) mating systems. MBP/IFN-γ×PLP/SOCS1 (172×PLP/SOCS1) mating was performed according to a standard mating protocol. The GFAP/tTA×TRE/IFN-γ×PLP/SOCS1 matings were performed in a 2-step mating process: GFAP/tTA mice were initially crossed to PLP/SOCS1 mice, and double-positive (184×PLP/SOCS1) offspring were then crossed to the TRE/IFN-γ lines 110 and 67, separately. This second mating step was performed according to the previously described “tet-off” protocol. Doxycycline 0.05 mg/ml (Sigma-Aldich) was added to the water of impregnated female mice until embryonic day 14, after which the animals were switched back to normal water, thereby allowing initiation of IFN-γ transcription, which peaks during the postnatal period (Lin et al., 2005).
The litters of the mating systems (F1 generation) were examined daily and sacrificed at postnatal day 21. Clinical evaluation included behavioral observation and challenged ladder walking to elicit tremor. Histological examination included quantitation of the number and density of oligodendrocytes and examination of the myelination patterns. Brain tissue was simultaneously obtained from each animal at the time of sacrifice to verify and measure the expression of IFN-γ and Flag-SOCS1 (see below). The clinical and histological findings were subsequently stratified according to genotype. All animal procedures were conducted in compliance with the National Institutes of Health Guide for Care and Use of Laboratory Animals and were approved by the Institutional Animal Care and Use Committee at The University of Chicago.
Oligodendrocyte cell density was assessed digitally using Axiovision software, at postnatal day 21, as previously described (Lin et al., 2005). The brains were sectioned sagittally through the corpus callosum dividing the brain in two symmetrical halves. Ten frozen sections from each half were prepared at 7 μm thickness, and numbered in the sequence of their preparation. The brains of three animals per study group were prepared in this fashion. Following the CC1 immunostaining the corresponding area of corpus callosum of each section was digitally selected and the corresponding total area obtained. CC1 cell counting was performed manually within the selected areas of each section, and the number of CC1 positive cells per square area (mm^2) calculated. The results were presented as mean±SD of CC1 (+) cells/mm^2 with n=3 animals per study group. […]

interferon-γ [IFN-γ] was tested, and the Incidence of tremor (172 × PLP/SOCS1 mating system, ten mice per group) was 0%, the oligodendrocytes lost (184/67 × PLP/SOCS1 system) was “approximately 40%” and the “percentage of unmyelinated axons” value (184/67 × PLP/SOCS1 system) was 57%±7. For the same substance, the oligodendrocyte density (184/67 × PLP/SOCS1 system) was 79±9 CC1 (+) cells/mm^2, the “G ratio (axon diameter/fiber diameter ratio)” value (184/67 × PLP/SOCS1 system) was 0.95±0.04 and the oligodendrocytes lost (184/110 × PLP/SOCS1 system) was “approximately 20%”. For the same substance, the “percentage of unmyelinated axons” value (184/110 × PLP/SOCS1 system) was 41%±6, the oligodendrocyte density (184/110 × PLP/SOCS1 system) was 115±8 CC1 (+) cells/mm^2 and the “G ratio (axon diameter/fiber diameter ratio)” value (184/110 × PLP/SOCS1 system) was 0.89±0.02.
